Laboratory results taken from paper PMC9186362, “Design and biological evaluation of substituted 5,7-dihydro-6H-indolo[2,3-c]quinolin-6-one as novel selective Haspin inhibitors” (Journal of Enzyme Inhibition and Medicinal Chemistry, 2022).

Tests used:
Assay in all cases: SelectScreen ZLYTE
Type in all cases: biochemical
[1] = biological target: T1, ACVR1B (ALK4) (Homo sapiens, UniProt P36896); details: ATP Km, read-out: Percentage of inhibition
T1 construct: purchased Life Technologies (SelectScreen Whole Panel)
Summary of the method: (§1)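 Values reflect inhibition measured at 1 μM of compound in a full-panel kinase selectivity survey; kinases reaching at least 80% inhibition were highlighted.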

[2] = biological target: AURKA (Aurora A) (Homo sapiens, UniProt O14965); details: ATP Km, read-out: Percentage of inhibition
Summary of the method: as §1

[3] = biological target: T2, CDC42 BPB (MRCKB) (Homo sapiens, UniProt Q9Y5S2); details: ATP Km, read-out: Percentage of inhibition
T2 construct: purchased Life Technologies (SelectScreen Whole Panel service)
Summary of the method: as §1

[4] = biological target: T3, CDK18/cyclin Y (Homo sapiens, UniProt Q07002); details: ATP Km, read-out: Percentage of inhibition
T3 construct: purchased Life Technologies
Summary of the method: as §1

[5] = biological target: CHEK1 (CHK1) (Homo sapiens, UniProt O14757); details: ATP Km, read-out: Percentage of inhibition
Summary of the method: as §1

[6] = biological target: T4, CLK2 (Homo sapiens, UniProt P49760); details: ATP Km, read-out: Percentage of inhibition
T4 construct: purchased Life Technologies
Summary of the method: as §1

[7] = biological target: T5, CSNK1E (CK1 epsilon) (Homo sapiens, UniProt P49674); details: ATP Km, read-out: Percentage of inhibition
T5 construct: purchased Life Technologies (SelectScreen service)
Summary of the method: as §1

[8] = biological target: CSNK1E (CK1 epsilon) R178C (Homo sapiens, UniProt P49674, R178C); details: ATP Km, read-out: Percentage of inhibition
Summary of the method: as §1

[9] = biological target: T6, EGFR (ErbB1) G719C (Homo sapiens, UniProt P00533, G719C); details: ATP Km, read-out: Percentage of inhibition
T6 construct: purchased Life Technologies (SelectScreen)
Summary of the method: as §1

[10] = biological target: T7, EPHB1 (Homo sapiens, UniProt P54762); details: ATP Km, read-out: Percentage of inhibition
T7 construct: purchased Life Technologies (SelectScreen Whole Panel)
Summary of the method: as §1

[11] = biological target: T8, FLT1 (VEGFR1) (Homo sapiens, UniProt P17948); details: ATP Km, read-out: Percentage of inhibition
T8 construct: purchased Life Technologies (SelectScreen Whole Panel service)
Summary of the method: as §1

[12] = biological target: T9, FLT3 (Homo sapiens, UniProt P36888); details: ATP Km, read-out: Percentage of inhibition
T9 construct: purchased Life Technologies
Summary of the method: as §1

[13] = biological target: FRAP1 (mTOR) (Homo sapiens, UniProt P42345); details: ATP Km, read-out: Percentage of inhibition
Summary of the method: as §1

[14] = biological target: T10, FYN (Homo sapiens, UniProt P06241); details: ATP Km, read-out: Percentage of inhibition
T10 construct: purchased Life Technologies (SelectScreen Whole Panel)
Summary of the method: as §1

[15] = biological target: T11, HIPK4 (Homo sapiens, UniProt Q8NE63); details: ATP Km, read-out: Percentage of inhibition
T11 construct: purchased Life Technologies (SelectScreen service)
Summary of the method: as §1

[16] = biological target: T12, JAK2 JH1 JH2 V617F (Homo sapiens, UniProt O60674, V617F); details: ATP Km, read-out: Percentage of inhibition
T12 construct: JAK2 JH1 JH2; purchased Life Technologies
Summary of the method: as §1

[17] = biological target: LCK (Homo sapiens, UniProt P06239); details: ATP Km, read-out: Percentage of inhibition
Summary of the method: as §1

[18] = biological target: LYN B (Homo sapiens, UniProt P07948); details: ATP Km, read-out: Percentage of inhibition
Summary of the method: as §1

[19] = biological target: T13, MAPK10 (JNK3) (Homo sapiens, UniProt P53779); details: ATP 100 µM, read-out: Percentage of inhibition
T13 construct: purchased Life Technologies
Summary of the method: as §1

[20] = biological target: T14, MAPK14 (p38 alpha) (Homo sapiens, UniProt Q16539); details: ATP 100 µM, read-out: Percentage of inhibition
T14 construct: purchased Life Technologies (SelectScreen Whole Panel service)
Summary of the method: as §1

[21] = biological target: T15, MAPKAPK3 (Homo sapiens, UniProt Q16644); details: ATP Km, read-out: Percentage of inhibition
T15 construct: purchased Life Technologies
Summary of the method: as §1

[22] = biological target: MAPKAPK5 (PRAK) (Homo sapiens, UniProt Q8IW41); details: ATP Km, read-out: Percentage of inhibition
Summary of the method: as §1

[23] = biological target: MST4 (Homo sapiens, UniProt Q9P289); details: ATP Km, read-out: Percentage of inhibition
Summary of the method: as §1

[24] = biological target: T16, NEK6 (Homo sapiens, UniProt Q9HC98); details: ATP Km, read-out: Percentage of inhibition
T16 construct: purchased Life Technologies (SelectScreen)
Summary of the method: as §1

[25] = biological target: T17, NTRK3 (TRKC) (Homo sapiens, UniProt Q16288); details: ATP Km, read-out: Percentage of inhibition
T17 construct: purchased Life Technologies
Summary of the method: as §1

[26] = biological target: T18, PHKG2 (Homo sapiens, UniProt P15735); details: ATP Km, read-out: Percentage of inhibition
T18 construct: purchased Life Technologies (SelectScreen)
Summary of the method: as §1

[27] = biological target: T19, PIM3 (Homo sapiens, UniProt Q86V86); details: ATP Km, read-out: Percentage of inhibition
T19 construct: purchased Life Technologies
Summary of the method: as §1

[28] = biological target: PRKCD (PKC delta) (Homo sapiens, UniProt Q05655); details: ATP Km, read-out: Percentage of inhibition
Summary of the method: as §1

[29] = biological target: PRKCI (PKC iota) (Homo sapiens, UniProt P41743); details: ATP Km, read-out: Percentage of inhibition
Summary of the method: as §1

[30] = biological target: PRKX (Homo sapiens, UniProt P51817); details: ATP Km, read-out: Percentage of inhibition
Summary of the method: as §1

[31] = biological target: T20, PTK2B (FAK2) (Homo sapiens, UniProt Q14289); details: ATP Km, read-out: Percentage of inhibition
T20 construct: purchased Life Technologies (SelectScreen Whole Panel service)
Summary of the method: as §1

[32] = biological target: T21, RET V804E (Homo sapiens, UniProt P07949, V804E); details: ATP Km, read-out: Percentage of inhibition
T21 construct: purchased Life Technologies (SelectScreen service)
Summary of the method: as §1

[33] = biological target: T22, SGKL (SGK3) (Homo sapiens, UniProt Q96BR1); details: ATP Km, read-out: Percentage of inhibition
T22 construct: purchased Life Technologies (SelectScreen)
Summary of the method: as §1

[34] = biological target: T23, SRC (Homo sapiens, UniProt P12931); details: ATP Km, read-out: Percentage of inhibition
T23 construct: purchased Life Technologies
Summary of the method: as §1

[35] = biological target: SRC N1 (Homo sapiens, UniProt P12931); details: ATP Km, read-out: Percentage of inhibition
Summary of the method: as §1

[36] = biological target: SRPK1 (Homo sapiens, UniProt Q96SB4); details: ATP Km, read-out: Percentage of inhibition
Summary of the method: as §1

[37] = biological target: SRPK2 (Homo sapiens, UniProt P78362); details: ATP Km, read-out: Percentage of inhibition
Summary of the method: as §1

[38] = biological target: T24, TAOK2 (TAO1) (Homo sapiens, UniProt Q9UL54); details: ATP Km, read-out: Percentage of inhibition
T24 construct: purchased Life Technologies
Summary of the method: as §1

Sequence of PRKCI (PKC iota) (P41743 whole entry): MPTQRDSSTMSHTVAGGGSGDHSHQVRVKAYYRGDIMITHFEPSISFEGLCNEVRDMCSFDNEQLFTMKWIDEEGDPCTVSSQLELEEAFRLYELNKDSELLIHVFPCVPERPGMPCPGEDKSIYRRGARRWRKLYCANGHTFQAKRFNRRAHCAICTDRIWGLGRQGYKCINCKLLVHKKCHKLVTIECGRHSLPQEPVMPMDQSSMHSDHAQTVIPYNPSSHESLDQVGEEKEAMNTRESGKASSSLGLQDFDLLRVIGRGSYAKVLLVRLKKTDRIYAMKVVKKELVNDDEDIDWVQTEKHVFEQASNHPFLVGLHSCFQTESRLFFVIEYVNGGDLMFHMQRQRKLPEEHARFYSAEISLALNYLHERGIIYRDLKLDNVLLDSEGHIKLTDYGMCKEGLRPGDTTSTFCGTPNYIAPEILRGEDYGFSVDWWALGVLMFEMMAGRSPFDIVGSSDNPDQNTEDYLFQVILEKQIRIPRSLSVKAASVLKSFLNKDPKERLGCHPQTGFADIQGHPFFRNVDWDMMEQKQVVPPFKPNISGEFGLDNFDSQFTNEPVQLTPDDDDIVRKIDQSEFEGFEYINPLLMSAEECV
T17 sequence (Q16288 32-839): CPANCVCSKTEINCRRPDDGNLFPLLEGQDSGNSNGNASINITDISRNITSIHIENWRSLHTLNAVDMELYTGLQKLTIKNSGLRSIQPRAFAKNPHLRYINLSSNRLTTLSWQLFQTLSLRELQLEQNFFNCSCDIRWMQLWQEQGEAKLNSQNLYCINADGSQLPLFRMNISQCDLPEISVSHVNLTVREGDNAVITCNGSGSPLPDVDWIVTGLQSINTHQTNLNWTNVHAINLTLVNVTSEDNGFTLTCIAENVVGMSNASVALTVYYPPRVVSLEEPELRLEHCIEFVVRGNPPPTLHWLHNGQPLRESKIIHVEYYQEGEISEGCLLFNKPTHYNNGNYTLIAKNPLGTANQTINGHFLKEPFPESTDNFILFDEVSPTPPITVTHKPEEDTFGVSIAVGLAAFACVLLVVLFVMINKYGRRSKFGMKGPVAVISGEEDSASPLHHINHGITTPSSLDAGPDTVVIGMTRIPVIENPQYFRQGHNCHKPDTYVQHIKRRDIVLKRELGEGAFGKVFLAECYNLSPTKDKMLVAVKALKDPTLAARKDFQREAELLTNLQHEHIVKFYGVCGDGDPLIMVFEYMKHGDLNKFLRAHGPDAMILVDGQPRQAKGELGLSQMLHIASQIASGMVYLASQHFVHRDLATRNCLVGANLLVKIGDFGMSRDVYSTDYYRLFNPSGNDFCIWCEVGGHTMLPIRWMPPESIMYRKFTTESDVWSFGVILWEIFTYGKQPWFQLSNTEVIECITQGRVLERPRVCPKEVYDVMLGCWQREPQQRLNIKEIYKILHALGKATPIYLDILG
T23 sequence (P12931 whole entry): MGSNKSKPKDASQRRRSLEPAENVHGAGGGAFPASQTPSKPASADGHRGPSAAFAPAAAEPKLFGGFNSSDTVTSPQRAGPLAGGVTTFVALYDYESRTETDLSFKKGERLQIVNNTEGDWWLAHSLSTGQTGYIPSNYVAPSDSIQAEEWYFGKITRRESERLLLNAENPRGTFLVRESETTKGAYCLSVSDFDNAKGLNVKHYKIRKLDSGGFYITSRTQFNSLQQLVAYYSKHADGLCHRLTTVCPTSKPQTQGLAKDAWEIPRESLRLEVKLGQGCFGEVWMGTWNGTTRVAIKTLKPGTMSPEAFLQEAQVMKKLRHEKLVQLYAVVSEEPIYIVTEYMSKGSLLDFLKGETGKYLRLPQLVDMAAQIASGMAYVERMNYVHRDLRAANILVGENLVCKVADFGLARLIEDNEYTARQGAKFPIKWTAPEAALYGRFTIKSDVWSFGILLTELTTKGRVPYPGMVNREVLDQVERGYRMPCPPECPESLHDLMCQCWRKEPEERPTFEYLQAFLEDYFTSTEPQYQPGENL
T10 sequence (P06241 whole entry): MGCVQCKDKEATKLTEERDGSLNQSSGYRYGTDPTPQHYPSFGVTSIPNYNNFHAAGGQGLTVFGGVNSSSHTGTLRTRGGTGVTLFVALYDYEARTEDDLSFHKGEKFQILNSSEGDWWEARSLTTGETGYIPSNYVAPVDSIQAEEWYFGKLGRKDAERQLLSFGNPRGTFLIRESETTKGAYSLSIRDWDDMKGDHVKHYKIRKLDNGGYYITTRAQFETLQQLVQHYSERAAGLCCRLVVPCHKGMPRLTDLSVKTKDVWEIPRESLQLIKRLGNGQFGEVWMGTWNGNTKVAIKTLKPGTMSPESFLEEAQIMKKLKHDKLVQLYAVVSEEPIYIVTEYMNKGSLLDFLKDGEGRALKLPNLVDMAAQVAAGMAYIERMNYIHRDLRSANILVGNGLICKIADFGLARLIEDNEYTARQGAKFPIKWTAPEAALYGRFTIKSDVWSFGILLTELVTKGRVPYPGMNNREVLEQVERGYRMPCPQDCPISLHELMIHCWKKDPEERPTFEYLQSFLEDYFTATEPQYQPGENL
Sequence of SRPK2 (P78362 whole entry): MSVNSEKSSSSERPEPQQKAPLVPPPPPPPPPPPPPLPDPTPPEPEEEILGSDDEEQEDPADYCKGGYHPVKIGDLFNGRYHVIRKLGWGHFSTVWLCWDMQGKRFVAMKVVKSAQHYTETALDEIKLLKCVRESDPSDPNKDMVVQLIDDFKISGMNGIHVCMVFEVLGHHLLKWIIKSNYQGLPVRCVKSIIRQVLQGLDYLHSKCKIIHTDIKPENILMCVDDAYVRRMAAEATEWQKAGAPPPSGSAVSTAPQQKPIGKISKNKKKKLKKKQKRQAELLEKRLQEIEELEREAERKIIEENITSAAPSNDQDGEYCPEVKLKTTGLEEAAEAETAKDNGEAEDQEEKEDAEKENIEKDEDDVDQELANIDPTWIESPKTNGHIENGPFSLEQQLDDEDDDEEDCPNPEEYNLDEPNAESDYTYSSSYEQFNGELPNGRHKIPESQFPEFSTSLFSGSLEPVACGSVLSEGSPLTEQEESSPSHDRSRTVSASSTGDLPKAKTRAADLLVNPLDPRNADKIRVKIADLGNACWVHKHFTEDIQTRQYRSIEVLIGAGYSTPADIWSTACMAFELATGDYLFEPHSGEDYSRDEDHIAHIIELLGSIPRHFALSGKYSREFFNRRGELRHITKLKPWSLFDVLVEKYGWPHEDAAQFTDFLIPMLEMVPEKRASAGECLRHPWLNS
Sequence of SRPK1 (Q96SB4 whole entry): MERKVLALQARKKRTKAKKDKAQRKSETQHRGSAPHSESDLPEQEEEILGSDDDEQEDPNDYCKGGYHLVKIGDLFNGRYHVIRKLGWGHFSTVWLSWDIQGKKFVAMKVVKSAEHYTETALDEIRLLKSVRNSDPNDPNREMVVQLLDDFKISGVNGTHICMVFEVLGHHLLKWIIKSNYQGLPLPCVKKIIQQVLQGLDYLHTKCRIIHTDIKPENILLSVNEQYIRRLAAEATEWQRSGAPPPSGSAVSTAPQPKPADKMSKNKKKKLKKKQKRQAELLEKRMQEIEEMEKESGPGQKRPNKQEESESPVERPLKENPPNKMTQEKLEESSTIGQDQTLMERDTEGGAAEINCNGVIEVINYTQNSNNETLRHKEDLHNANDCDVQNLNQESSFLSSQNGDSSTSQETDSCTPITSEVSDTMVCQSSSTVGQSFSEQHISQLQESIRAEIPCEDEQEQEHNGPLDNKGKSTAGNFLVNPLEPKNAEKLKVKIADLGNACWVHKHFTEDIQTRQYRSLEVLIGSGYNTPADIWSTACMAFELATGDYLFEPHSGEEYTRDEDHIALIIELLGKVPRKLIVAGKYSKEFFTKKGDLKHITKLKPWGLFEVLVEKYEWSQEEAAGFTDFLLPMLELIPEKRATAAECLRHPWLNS
Sequence of LYN B (P07948 1-491 isoform P07948-2): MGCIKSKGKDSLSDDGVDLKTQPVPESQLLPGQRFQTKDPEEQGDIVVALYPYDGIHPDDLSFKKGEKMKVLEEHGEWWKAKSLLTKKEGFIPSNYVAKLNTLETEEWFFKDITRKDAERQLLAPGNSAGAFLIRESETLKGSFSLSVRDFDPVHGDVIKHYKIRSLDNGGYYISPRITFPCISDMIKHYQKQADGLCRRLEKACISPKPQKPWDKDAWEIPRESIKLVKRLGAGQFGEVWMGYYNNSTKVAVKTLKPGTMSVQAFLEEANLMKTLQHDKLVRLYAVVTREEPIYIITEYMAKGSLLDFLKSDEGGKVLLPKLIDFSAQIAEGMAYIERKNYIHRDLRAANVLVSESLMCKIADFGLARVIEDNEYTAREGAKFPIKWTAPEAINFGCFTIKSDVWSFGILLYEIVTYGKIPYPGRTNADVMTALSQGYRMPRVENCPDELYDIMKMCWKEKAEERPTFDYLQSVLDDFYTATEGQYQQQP
Sequence of PRKCD (PKC delta) (Q05655 whole entry): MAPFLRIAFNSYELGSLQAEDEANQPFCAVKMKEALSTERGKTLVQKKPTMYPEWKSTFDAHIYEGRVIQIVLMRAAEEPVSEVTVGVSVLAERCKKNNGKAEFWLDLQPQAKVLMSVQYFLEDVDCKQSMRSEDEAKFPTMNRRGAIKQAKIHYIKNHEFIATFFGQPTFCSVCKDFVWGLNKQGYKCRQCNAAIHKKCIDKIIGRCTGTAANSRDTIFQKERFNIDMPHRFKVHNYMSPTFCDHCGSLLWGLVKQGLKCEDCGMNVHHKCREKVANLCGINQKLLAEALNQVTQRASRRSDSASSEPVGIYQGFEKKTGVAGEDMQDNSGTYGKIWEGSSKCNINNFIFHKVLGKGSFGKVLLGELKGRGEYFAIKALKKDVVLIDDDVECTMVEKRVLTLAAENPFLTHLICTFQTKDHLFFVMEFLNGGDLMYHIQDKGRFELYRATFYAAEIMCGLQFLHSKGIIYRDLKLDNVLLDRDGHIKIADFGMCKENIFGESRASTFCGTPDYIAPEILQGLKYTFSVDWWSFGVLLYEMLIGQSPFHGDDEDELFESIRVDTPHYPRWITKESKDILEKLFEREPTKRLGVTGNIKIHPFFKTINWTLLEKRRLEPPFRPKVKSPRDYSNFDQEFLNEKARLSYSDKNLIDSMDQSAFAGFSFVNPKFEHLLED

## COc1ccc2[nH]c3c(=O)[nH]c4ccc(O)cc4c3c2c1 [Compound 55, 2-Hydroxy-10-methoxy-5,7-dihydro-6H-indolo[2,3-c]quinolin-6-one]
[1]
  inhibition at 1 µM: -13%
[2]
  inhibition at 1 µM: 58%
[3]
  inhibition at 1 µM: 10%
[4]
  inhibition at 1 µM: 36%
[5]
  inhibition at 1 µM: 19%
[6]
  inhibition at 1 µM: 97%
[7]
  inhibition at 1 µM: 73%
[8]
  inhibition at 1 µM: 70%
[9]
  inhibition at 1 µM: 8%
[10]
  inhibition at 1 µM: 49%
[11]
  inhibition at 1 µM: 10%
[12]
  inhibition at 1 µM: 93%
[13]
  inhibition at 1 µM: 6%
[14]
  inhibition at 1 µM: 49%
[15]
  inhibition at 1 µM: 24%
[16]
  inhibition at 1 µM: 36%
[17]
  inhibition at 1 µM: 67%
[18]
  inhibition at 1 µM: 67%
[19]
  inhibition at 1 µM: 15%
[20]
  inhibition at 1 µM: 12%
[21]
  inhibition at 1 µM: 3%
[22]
  inhibition at 1 µM: 22%
[23]
  inhibition at 1 µM: 61%
[24]
  inhibition at 1 µM: 8%
[25]
  inhibition at 1 µM: 93%
[26]
  inhibition at 1 µM: 8%
[27]
  inhibition at 1 µM: 33%
[28]
  inhibition at 1 µM: 7%
[29]
  inhibition at 1 µM: 6%
[30]
  inhibition at 1 µM: 7%
[31]
  inhibition at 1 µM: 46%
[32]
  inhibition at 1 µM: 86%
[33]
  inhibition at 1 µM: 9%
[34]
  inhibition at 1 µM: 37%
[35]
  inhibition at 1 µM: 59%
[36]
  inhibition at 1 µM: 7%
[37]
  inhibition at 1 µM: 6%
[38]
  inhibition at 1 µM: 3%
